Test results from patent publication US20250320462A1, “METHODS AND APPARATUSES FOR TESTING HEPATOCYTE TOXICITY USING MICROORGANOSPHERES” (XILIS, INC., priority 2022, published 2025).
Where two headings read alike, the source gives them in different places.

Legend:
HepatoMOS (PHHs) = assay: HepatoMOS-based DILI assay (CTG viability, live/dead staining); type: cell-based, human; settings: for IC50: Homo sapiens; for sensitivity of HepatoMOS-based versus spheroid-based DILI assay: indicated by lower IC50 values and large safety margins
Experimental: Frozen human hepatocytes from Lonza were plated at 30,000 cells per well and allowed to establish in plating media. On day 2 plating media was removed and replaced with maintenance media and cultured for 1 day. On the third day, media was replaced with treatment media and the cells were treated for 72 hours. Prior to harvest HepatoMOSs were treated with CTG reagent to monitor viability.
100 cells/droplet was used in this experiment, the cell viabilities were determined by Celltiter Glo 3D.
(§1) Cell viability assay: The cell viabilities of PHHs in 2D monolayer culture or HepatoMOS culture were measured by CellTiter-Glo® 3D Cell Viability Assay (Promega). For the HepatoMOS viability measurement, we also applied the combination of Calcein AM and EtH staining in addition to CTG assay as previously reported.
(§2) DILI assessment in 2D PHHs and HepatoMOS: For the DILI assessment in the 2D monolayer of PHH cultures, PHHs were seeded at the cell density of 20,000 live cells/well in the collagen-coated 96-well plates. After 24h of culturing, the PHHs were exposed to DILI compounds at different concentrations. The cell viabilities of PHHs were then measured by using CTG assay and the DILI effects were assessed by the changes of CTG reading. For the DILI assessment in HepatoMOS culture, the HepatoMOS were encapsulated at 100 cells/droplet and cultured at HCM or InSphero media for 4 days. Then the HepatoMOS were dispensed into 96 well plates and followed by the drug treatment.

spheroid PHHs = assay: Spheroid-based DILI assay; type: cell-based, human
Experimental: Culture of PHHs and HepatoMOS generation: The pooled donors and the individual donor of PHHs were purchased from BioIVT (www.bioivt.com). The PHHs used to compare the DILI predictivities of the spheroid method vs. HepatoMOS methods were accompanied with the InSphero Kit. Four different serum-free media options (InSphero, HCM™ Hepatocyte Culture Medium BulletKit™, BioIVT INVITROGRO HI Medium, and William E) were selected for the initial HepatoMOS culture in this study. PHHs were cultured either as a 2D monolayer on collagen-coated 96-well plates or encapsulated in MOS to create HepatoMOS at different cell densities. For the comparison of HepatoMOS with the dome culture methods, matched cell densities used for the dome and making HepatoMOS were used.
Given the high fidelity of cell viability, maintenance, and hepatic-specific function preservation in HepatoMOS culture, the potential application in predicting DILI effects during drug development was evaluated. The sensitivities and specificities of HepatoMOS were compared with two widely used approaches for DILI detection: i) 2D culture; and ii) spheroid PHHs.

[1] = combined with immunotherapies; cited from earlier work
[2] = test system: 2D monolayer of PHH cultures; assay: 2D-based DILI assay; type: cell-based, human
Experimental: as §1, §2

3D Hepatocyte Spheroid = settings: values above 199 show no toxicity; read-out: 3D Hepatocyte Spheroid pIC50 (converted); cited from earlier work
HepG2 = settings: values above 199 show no toxicity; read-out: Typical 2D HepG2 Monolayer Cell Health IC50; cited from earlier work
tumor = assay: Actual patient tumor response to treatment; settings: in vivo
Experimental: (§3) In a similar set of experiments, MOSs were generated from biopsy material (FIG. 23A), and a drug effect screen was performed using the resulting MOSs. […] Thus, the MOSs correlated strongly with patient response to the standard of care drugs. In this case, the patient endured six months of side effects and toxicities that may have been avoided by the predicted response from the MOSs, indicating (within 7-10 days from the biopsy) that the tumor would not respond to these drugs.

tumor MOSs = assay: Drug screen on MOSs generated from a patient tumor biopsy; type: cell-based
Experimental: as §3
In this example, a drug screen using the Patient-Derived MOSs was run by dosing a plurality of replicates for each of a plurality of (27) drugs. A single tumor biopsy was used to generate a plurality of MOSs in large quantities extremely fast (e.g., within less than two weeks) and these MOSs were tested against the panel of drug formulations (e.g., 27 formulations are shown). This testing was done in parallel and could be automatically quantified (e.g., by optical detection and quantification).

traditional cell line = assay: Traditional cell line drug screen; type: cell-based; settings: all dose ranges examined
Source text: As mentioned above, the MOSs and methods of using them to screen for drug compositions may be used to accurately predict the response of a patient tumor to one or more drug therapies. […] For example, in FIG. 22A-22D, the MOSs, but not a cell line, was able to correlate with patient response.

human liver MOSs = assay: Toxicity assay using human liver MOSs; type: cell-based; settings: 10 mM
Source text: Similarly, FIGS. 34A-34B also show toxicity assays using human liver MOSs.

mouse liver MOSs = assay: Toxicity assay using mouse liver MOSs; type: cell-based; settings: 10 mM

Compound: C=CC(=O)N1CCN(c2nc(=O)n(-c3c(C)ccnc3C(C)C)c3nc(-c4c(O)cccc4F)c(F)cc23)[C@@H](C)C1 [AMG-510]
- IC50 (HepatoMOS (PHHs); 10 donor batch): < 10 µM
- IC50 (HepatoMOS (PHHs); single donor): < 3.7 µM
- DILI concern in spheroid-based DILI assay (spheroid PHHs): failed to capture any DILI concern
- liver side effects in Phase 1 clinical trial [1]: higher incidence of severe liver side effects
- DILI concern in 2D-based DILI assay [2]: failed to capture any DILI concern

Compound: COc1ccccc1Oc1c(NS(=O)(=O)c2ccc(C(C)(C)C)cc2)nc(-c2ncccn2)nc1OCCO [Bosentan]
- IC50 (3D Hepatocyte Spheroid): 166 µM
- IC50 (HepG2): > 200 µM

Compound: O=C(O)Cc1ccccc1Nc1c(Cl)cccc1Cl [Diclofenac]
- IC50 (3D Hepatocyte Spheroid): 66.1 µM
- IC50 (HepG2): > 200 µM

Compound: O=c1[nH]c(=O)n([C@@H]2O[C@H](CO)[C@@H](O)[C@@H]2F)cc1I [Fialuridine]
- IC50 (3D Hepatocyte Spheroid): 1.32 µM
- IC50 (HepG2): > 200 µM

Compound: CCc1c2c(nc3ccc(OC(=O)N4CCC(N5CCCCC5)CC4)cc13)-c1cc3c(c(=O)n1C2)COC(=O)[C@]3(O)CC [Irinotecan]
- patient tumor response to treatment (tumor): no response
- cell survival of tumor MOSs (tumor MOSs): lack of effect

Compound: CS(=O)(=O)CCNCc1ccc(-c2ccc3ncnc(Nc4ccc(OCc5cccc(F)c5)c(Cl)c4)c3c2)o1 [Lapatinib]
- IC50 (3D Hepatocyte Spheroid): 1.32 µM
- IC50 (HepG2): > 200 µM

Compound: O=C1[O][Pt]2([NH][C@@H]3CCCC[C@H]3[NH]2)[O]C1=O [Oxaliplatin]
- effect on traditional cell line (traditional cell line): no effect
- patient tumor response to treatment (tumor; listed as Oxalipalatin): no response
- patient tumor response to treatment (tumor; listed as Oxalipalitin): responded to treatment
- cell survival of tumor MOSs (tumor MOSs; listed as Oxalipalatin): no change in the percent survival
- cell survival of tumor MOSs (tumor MOSs; listed as Oxalipalitin): significant decreases in cell survival

Compound: Cc1ccc(C(=O)c2cc(O)c(O)c([N+](=O)[O-])c2)cc1 [Tolcapone]
- IC50 (3D Hepatocyte Spheroid): 9.99 µM
- sensitivity of HepatoMOS-based versus spheroid-based DILI assay (HepatoMOS (PHHs)): better sensitivities
- IC50 (HepG2): 91.2 µM

Compound: Cc1c(C)c2c(c(C)c1O)CCC(C)(COc1ccc(CC3SC(=O)NC3=O)cc1)O2 (centres unmarked) [Troglitazone]
- sensitivity of HepatoMOS-based versus spheroid-based DILI assay (HepatoMOS (PHHs)): better sensitivities

Compound: CC(=O)Nc1ccc(O)cc1 [acetaminophen]
- tissue in human liver MOSs versus control (human liver MOSs): significant increase atypical tissue structures (arrows) and debris
- tissue in mouse liver MOSs versus control (mouse liver MOSs): smaller and contains many dead cells
